Legend:
[1] = Liver hepatocyte stability, human; assay type: in vitro ADME; details: human hepatocytes, 3 μM compound, 60 min, >80% remaining at 60 min denoted >186, read-out: Liver Hepatocyte Stability: t1/2 (min)
Protocol: (§1) Cryopreserved pooled hepatocytes were purchased from a reputable commercial supplier and stored in liquid nitrogen prior to use. Williams E media supplemented with 2 mM L-glutamine and 25 mM HEPES and test compound (final substrate concentration 3 μM; final DMSO concentration 0.25%) are pre-incubated at 37° C. prior to the addition of a suspension of cryopreserved hepatocytes (final cell density 0.5×10^6 viable cells/mL in Williams E media supplemented with 2 mM L-glutamine and 25 mM HEPES) to initiate the reaction. The final incubation volume is 500 μL. Two control compounds were included with each species, alongside appropriate vehicle control. The reactions are stopped by transferring 50 μL of incubate to 100 μL acetonitrile containing internal standard at the appropriate time points. Samples were removed at 6 time points (0, 5, 15, 30, 45 and 60 min) over the course of a 60 min experiment. The termination plates are centrifuged at 2500 rpm at 4° C. for 30 min to precipitate the protein. Following protein precipitation, the sample supernatants were combined in cassettes of up to 4 compounds and analysed using generic LC-MS/MS conditions. From a plot of ln peak area ratio (compound peak area/internal standard peak area) against time, the gradient of the line is determined. Subsequently, half-life (t1/2) and intrinsic clearance (CLint) were calculated.

[2] = Liver hepatocyte stability, dog; assay type: in vitro ADME; details: dog hepatocytes, 3 μM compound, 60 min, >80% remaining at 60 min denoted >186, read-out: Liver Hepatocyte Stability: t1/2 (min)
Protocol: as §1

Cell cytotoxicity CC50 = assay type: cell-based; details: human; mean of at least two experiments
[3] = Liver microsomal stability, rat; assay type: in vitro ADME; details: pH 7.4; rat liver microsomes, 0.5 mg/mL protein, 1 μM compound, NADPH; >80% remaining at 45 min denoted >140; read-out: Liver Microsomal Stability: t1/2 (min); rat
In short: (§2)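 Pooled liver microsomes (0.5 mg/mL protein) in 0.1 M phosphate pH 7.4 with 1 μM compound (0.25% DMSO), started with 1 mM NADPH at 37° C; sampled 0-45 min, minus-NADPH control 45 min. LC-MS/MS depletion slope gave t1/2 and CLint.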

[4] = Liver hepatocyte stability, rat; assay type: in vitro ADME; details: rat hepatocytes, 3 μM compound, 60 min, >80% remaining at 60 min denoted >186, read-out: Liver Hepatocyte Stability: t1/2 (min)
Protocol: as §1

[5] = Liver microsomal stability, human; assay type: in vitro ADME; details: pH 7.4; human liver microsomes, 0.5 mg/mL protein, 1 μM compound, NADPH; >80% remaining at 45 min denoted >140; read-out: Liver Microsomal Stability: t1/2 (min); human
In short: as §2

Structure (SMILES) | half-life at 3 µM [1] [min] | half-life at 3 µM [2] [min] | CC50 at 2 days (Cell cytotoxicity CC50) [µM] | half-life at 1 µM [3] [min] | half-life at 3 µM [4] [min] | half-life at 1 µM [5] [min] | half-life [1] [min] | half-life [2] [min] | CC50 (Cell cytotoxicity CC50) [µM] | half-life [3] [min] | half-life [4] [min] | half-life [5] [min]
CCn1ncc(C(=O)N[C@H]2N=C(c3ccccc3)c3ccccc3NC2=O)c1-c1ccc(NC(C)C)nc1F [Example 3, 1-Ethyl-5-[2-fluoro-6-(propan-2-ylamino)pyridin-3-yl]-N-[(3S)-2-oxo-5-phenyl-1,3-dihydro-1,4-benzodiazepin-3-yl]pyrazole-4-carboxamide] | 52.6 | 67.4 | > 25 | 88.8 | 73.8 | 287 | – | – | – | – | – | –
CCn1ncc(C(=O)N[C@H]2N=C(c3ccccc3)c3ccccc3NC2=O)c1-c1ccc(NC2CC2)nc1F [Example 4, 1-Ethyl-5-[2-fluoro-6-(cyclopropylamino)pyridin-3-yl]-N-[(3S)-2-oxo-5-phenyl-1,3-dihydro-1,4-benzodiazepin-3-yl]pyrazole-4-carboxamide] | – | – | – | – | – | – | 53.5 | 42.1 | > 25 | 68.5 | 47.3 | 52
O=C(N[C@H]1N=C(c2ccccc2)c2cccc(F)c2NC1=O)c1cnn(C2CCOCC2)c1-c1ccc(NC2CC2)nc1F [Example 21, 5-[6-(Cyclopropylamino)-2-fluoropyridin-3-yl]-N-[(3S)-9-fluoro-2-oxo-5-phenyl-1,3-dihydro-1,4-benzodiazepin-3-yl]-1-(oxan-4-yl)pyrazole-4-carboxamide] | – | – | – | – | – | – | > 186 | > 186 | > 25 | 87.6 | 284 | 170
CC(C)Nc1ccc(-c2c(C(=O)N[C@H]3N=C(c4ccccc4)c4cccc(F)c4NC3=O)cnn2C2CCOCC2)c(F)n1 [Example 22, N-[(3S)-9-fluoro-2-oxo-5-phenyl-1,3-dihydro-1,4-benzodiazepin-3-yl]-5-[2-fluoro-6-(propan-2-ylamino)pyridin-3-yl]-1-(oxan-4-yl)pyrazole-4-carboxamide] | – | – | – | – | – | – | 207 | 90.7 | > 25 | > 140 | 120 | 287
CCNc1ccc(-c2c(C(=O)N[C@H]3N=C(c4ccccc4)c4cccc(F)c4NC3=O)cnn2C2CCOCC2)c(F)n1 [Example 24, 5-[6-(Ethylamino)-2-fluoropyridin-3-yl]-N-[(3S)-9-fluoro-2-oxo-5-phenyl-1,3-dihydro-1,4-benzodiazepin-3-yl]-1-(oxan-4-yl)pyrazole-4-carboxamide] | – | – | – | – | – | – | 162 | 139 | > 25 | 484 | 228 | > 140

Source: patent publication US20220409629A1, “BENZODIAZEPINE DERIVATIVES FOR TREATING A RESPIRATORY SYNCYTIAL VIRUS (RSV) INFECTION” (priority 2019, published 2022)
